Test results taken from patent publication US20070154540A1 (KMSI CO., LTD., priority 2003, published 2007).

Experiments:
[1] = system: osteoarthritis-induced New Zealand white rabbits; test: Visual observation of joint cartilage in ACLT osteoarthritis-induced rabbits; type: in vivo
Excerpt: To prepare an osteoarthritis animal model, New Zealand white rabbits underwent anterior cruciate ligament transection (ACLT) in joints of their two hind legs. […] The following Examples 3 to 10 were all performed using joints of the osteoarthritis-induced New Zealand white rabbits prepared as in this Example 2. […] In contrast, in the PBS control group, the surface of joint cartilage was very rough due to the damage of the joint cartilage.

[2] = system: osteoarthritis-induced New Zealand white rabbits; test: Total protein levels in joint synovial fluids (Bradford); type: in vivo
Excerpt: (§1) To prepare an osteoarthritis animal model, New Zealand white rabbits underwent anterior cruciate ligament transection (ACLT) in joints of their two hind legs. After three days, the rabbits were forced to sustain movement for four weeks in a space of 5×5 m^3 to induce substantial osteoarthritis. […] The following Examples 3 to 10 were all performed using joints of the osteoarthritis-induced New Zealand white rabbits prepared as in this Example 2.
As cartilage is destroyed with the progress of osteoarthritis, proteins contained therein are released into synovial fluids. With this respect, total protein levels were measured in synovial fluids. Using the joint synovial fluids prepared in Example 3, total protein levels in synovial fluids were measured using a Bradford method. 50 μl of a synovial fluid was mixed with 200 μl of a protein analysis reagent (500-0006, Bio-Rad) and allowed to stand at room temperature for 5 min, and absorbance was then measured at 595 nm.

[3] = system: osteoarthritis-induced New Zealand white rabbits; test: Mankin's scoring of joints; type: in vivo; settings: after osteoarthritis induction, scale 0 to 14; control group 12.5
Experimental: In histological tests, degenerative changes, such as structural changes of cartilage, cell number changes in cartilage and surface staining distribution by cartilage staining with a dye, were evaluated according to a standard scoring system for the progress of osteoarthritis, Mankin's scoring (Mankin, H. J. et al., Orthopedic Clinics of North America, 2:19-30 (1971)). In the present invention, blind tests were performed by two inspectors according to the Mankin's criteria.
To prepare an osteoarthritis animal model, New Zealand white rabbits underwent anterior cruciate ligament transection (ACLT) in joints of their two hind legs. After three days, the rabbits were forced to sustain movement for four weeks in a space of 5×5 m^3 to induce substantial osteoarthritis. […]
30-mm synovial tissues were sectioned from the medial parapatella synovium of knee joints of experimental animals, fixed with 10% […] (F0507, Sigma) for over 24 hrs, and embedded in paraffin to make 4-mm paraffin blocks. […] Mankin's scoring was performed by blind tests carried out by two inspectors, and Mankin scores were determined according to the degree of degenerative progress and ranged from 0 (normal in all items) to a maximum score of 14, thus calculating a degenerative change index.

[4] = system: osteoarthritis-induced New Zealand white rabbits; test: Distribution and number of synovial cells; type: in vivo
Experimental: as §1
Tissues were prepared according to the same method as in Example 9 and evaluated for cell number and the condition of their surfaces. Cell number was measured at a site 120 μm in depth.

iNOS = test: Western blotting of iNOS expression in LPS-treated RAW 264.7; type: cell-based, mice; settings: LPS treatment = 100%, upon apigenin treatment
Experimental: (§2) A macrophage cell line derived from mice, RAW 264.7 (KCLB 40071), was purchased from the Korean Cell Line Bank. RAW 264.7 cells were seeded in a density of 3×10^6 cells onto 60-mm culture dishes containing DMEM (Dulbecco's Modified Eagle Medium, 12800-017, Gibco) supplemented with 10% FBS (fetal bovine serum, 26140-079, Gibco), 100 U/ml of penicillin and 100 μg/ml streptomycin (15140-122, Gibco), and cultured at 37° C. under 5% CO2 and humidity for 24 hrs. To induce NO production, RAW 264.7 cells were treated with 500 ng/ml of an E. coli cell wall component, lipopolysaccharide (LPS, […], Sigma). […] Herein, LPS was dissolved in distilled water, and apigenin was dissolved in DMSO. Then, the culture medium and a Griess reagent were mixed at a ratio of 1:1 (100 μl: 100 μl) and allowed to stand at room temperature for 10 min. Thereafter, absorbance was measured at 540 nm using a spectrophotometer (Power Wave X340, Bio-Tek). RAW 264.7 cells were treated under the same conditions as in Example 12. […] Herein, for IκBα expression, the cells were treated with LSP for only two hours. […] After protein concentrations in cell lysates were measured, […] protein samples were separated on an 8-16% SDS (sodium dodecyl sulfate) polyacrylamide gel (EC60452, NOVEX). […]

IκBα = test: Western blotting of IκBα expression in LPS-treated RAW 264.7; type: cell-based, mice; settings: normal = 100%, LPS (two hours) 18.56%, 10 μM of apigenin
Experimental: as §2

cancer cells = settings: background statement; cited from earlier work

Question: With O=c1cc(-c2ccc(O)cc2)oc2cc(O)cc(O)c12 [apigenin, 4′,5,7-trihydroxyflavone] as the compound, how does the “surface of joint cartilage (visual)” value ([1]; apigenin-treated right joint, 50 μg once per week for four weeks) read?
Answer: visually smooth

Question: What about the “cartilage in the left joint of the test group (visual)” value ([1]; non-treated left joint of apigenin group) of the same compound?
Answer: improved to some extent

Question: What about the “Total protein levels in joint synovial fluids” value (“Total protein levels” for short) ([2]; apigenin-treated right leg (+), four weeks after drug injection) of the same compound?
Answer: about 24.91 mg/ml

Question: What about the “Total protein levels” value ([2]; apigenin-treated right leg (+), four weeks after drug injection, listed as Apigenin) of the same compound?
Answer: 24.91 ± 0.35 mg/mL

Question: What about the “Total protein levels” value ([2]; apigenin-treated right leg (+), two weeks after drug injection) of the same compound?
Answer: 16.64 ± 0.3 mg/mL

Question: What about the “Total protein levels” value ([2]; non-treated left leg (−) of apigenin treatment group, four weeks after drug injection) of the same compound?
Answer: 36.37 ± 0. mg/ml

Question: And the “Total protein levels” value ([2]; non-treated left leg (−) of apigenin treatment group, two weeks after drug injection)?
Answer: 20.36 ± 0.69 mg/mL

Question: And the “Mankin score (mean)” value [3]?
Answer: 6.6

Question: And the “decrease in synovial cell number compared to the control group” value ([4]; after osteoarthritis induction)?
Answer: about 34.5%

Question: And the “number of synovial cells” value ([4]; after osteoarthritis induction, measured at a site 120 μm in depth, control group 632.3)?
Answer: 406.6

Question: What about the “surface of synovial membrane section” value ([4]; right leg, compared with control group treated with physiological saline) of the same compound?
Answer: relatively smooth surface

Question: And the iNOS expression level (iNOS)?
Answer: 0%

Question: What about the IκBα expression level (IκBα) of the same compound?
Answer: 75.82%

Question: And the “concentration at which apigenin acts effectively (anticancer activity)” value (cancer cells)?
Answer: lower than 50 μM
